The values below come from patent US10336762B2 (priority 2017, dated 2019).

pEC50, pIC50: −log10 of the molar value.

One assay concerns TNFα. The assay can be described thus: cells. It counts as cell-based, human. The note with it: Homo sapiens, Monocyte, LPS-stimulated human monocytes, TNFα by TR-FRET; read-out: EC50 TNF. On the technique in general: In TR-FRET formats the signal depends on donor and acceptor labels being close together.
The next assay addresses IRAK4 enzyme (Homo sapiens (Human), UniProt Q9NWZ3). The assay can be described thus: biochemical. It counts as biochemical. The following applies: IRAK4 enzyme, TR-FRET, 500 μM ATP.

Sequence of IRAK4 enzyme (Q9NWZ3 whole entry): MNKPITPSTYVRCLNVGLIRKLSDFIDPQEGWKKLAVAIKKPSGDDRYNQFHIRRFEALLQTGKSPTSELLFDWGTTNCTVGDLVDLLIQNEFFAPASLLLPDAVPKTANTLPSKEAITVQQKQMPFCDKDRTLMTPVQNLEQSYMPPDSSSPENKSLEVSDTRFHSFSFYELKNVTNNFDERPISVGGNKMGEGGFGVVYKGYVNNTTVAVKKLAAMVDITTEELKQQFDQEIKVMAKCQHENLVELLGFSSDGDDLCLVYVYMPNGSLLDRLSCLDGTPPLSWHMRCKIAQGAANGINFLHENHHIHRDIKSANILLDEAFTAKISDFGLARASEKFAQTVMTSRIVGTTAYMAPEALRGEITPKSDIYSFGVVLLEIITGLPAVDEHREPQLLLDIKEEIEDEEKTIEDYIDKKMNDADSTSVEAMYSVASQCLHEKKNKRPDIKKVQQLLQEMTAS

For the compound `N#Cc1cnn2c(-c3cc(NC45CCC(O)(CC4)CC5)c(C(=O)N[C@@H]4CCNC4=O)cn3)ccc2c1` [Example 959, (R)-6-(3-cyanopyrrolo[1,2-b]pyridazin-7-yl)-4-((4-hydroxybicyclo[2.2.2]octan-1-yl)amino)-N-(2-oxo-pyrrolidin-3-yl)nicotinamide], in the assay on TNFα, the pEC50 is 6.69. Further, the negative-log IC50 (pIC50) at IRAK4 enzyme is > 9.00.

Turning to `N#Cc1cnn2c(-c3cc(NC45CCC(O)(CC4)CC5)c(C(=O)N[C@H]4CCNC4=O)cn3)ccc2c1` [Example 960, (S)-6-(3-cyanopyrrolo[1,2-b]pyridazin-7-yl)-4-((4-hydroxybicyclo[2.2.2]octan-1-yl)amino)-N-(2-oxo-pyrrolidin-3-yl)nicotinamide], the pEC50 with TNFα is 6.50. Besides, the pIC50 on IRAK4 enzyme is 9.00.

For `N#Cc1cnn2c(-c3cc(NC45CCC(O)(CC4)CC5)c(C(=O)NCC(F)(F)C(=O)N4CC(F)(F)C4)cn3)ccc2c1` [Example 961, 6-(3-cyanopyrrolo[1,2-b]pyridazin-7-yl)-N-(3-(3,3-difluoroazetidin-1-yl)-2,2-difluoro-3-oxopropyl)-4-((4-hydroxybicyclo[2.2.2]octan-1-yl)amino)nicotinamide], in the assay with TNFα, the pEC50 was 6.42. At IRAK4 enzyme, this compound had a pIC50 of 8.70.

For the compound `CN(C)C(=O)C(F)(F)CNC(=O)c1cnc(-c2ccc3cc(C(N)=O)cnn23)cc1NC12CCC(O)(CC1)CC2` [Example 962, 7-(5-((3-(dimethylamino)-2,2-difluoro-3-oxopropyl)carbamoyl)-4-((4-hydroxybicyclo[2.2.2]octan-1-yl)amino)pyridin-2-yl)pyrrolo[1,2-b]pyridazine-3-carboxamide], in the assay on TNFα, the pEC50 is < 5.00. The same compound showed a pIC50 on IRAK4 enzyme of 6.19.

Turning to `NC(=O)c1cnn2c(-c3cc(NC45CCC(O)(CC4)CC5)c(C(=O)NCC(F)(F)C(=O)N4CC(F)(F)C4)cn3)ccc2c1` [Example 963, 7-(5-((3-(3,3-difluoro-azetidin-1-yl)-2,2-difluoro-3-oxopropyl)carbamoyl)-4-((4-hydroxybicyclo[2.2.2]octan-1-yl)amino)pyridin-2-yl)pyrrolo[1,2-b]pyridazine-3-carboxamide], the negative-log EC50 (pEC50) in the assay with TNFα is < 5.00. The compound further gave a negative logarithm of the IC50 (pIC50) against IRAK4 enzyme of 6.40.

For `N#Cc1cnn2c(-c3cc(NC45CCC(O)(CC4)CC5)c(C(=O)NC4(CF)CC4)cn3)ccc2c1` [Example 964, 6-(3-cyanopyrrolo[1,2-b]pyridazin-7-yl)-N-(1-(fluoromethyl)cyclo-propyl)-4-((4-hydroxy-bicyclo[2.2.2]octan-1-yl)amino)nicotinamide], in the assay with TNFα, the negative-log EC50 (pEC50) is 7.17. Besides, the pIC50 at IRAK4 enzyme is 9.00.

Consider `CC(C)(O)[C@H](F)CNC(=O)c1cnc(-c2ccc3cc(C#N)cnn23)cc1Nc1ccc(Cl)nc1` [Example 965, (R)-4-((6-chloropyridin-3-yl)amino)-6-(3-cyanopyrrolo[1,2-b]pyridazin-7-yl)-N-(2-fluoro-3-hydroxy-3-methylbutyl)nicotinamide], for which the pEC50 in the assay with TNFα was 7.59. Besides, the pIC50 against IRAK4 enzyme was > 9.00.

Consider `CC(C)(O)[C@H](F)CNC(=O)c1cnc(-c2ccc3cc(C#N)cnn23)cc1Nc1cnc(-c2ccc3cc(C#N)cnn23)nc1` [Example 966, (R)-6-(3-cyanopyrrolo[1,2-b]pyridazin-7-yl)-4-((2-(3-cyanopyrrolo[1,2-b]pyridazin-7-yl)pyrimidin-5-yl)amino)-N-(2-fluoro-3-hydroxy-3-methylbutyl) nicotinamide], for which, in the assay with TNFα, the pEC50 was < 5.00. At IRAK4 enzyme, this compound gave a pIC50 of 8.70.

`CC(C)(O)[C@H](F)CNC(=O)c1cnc(-c2ccc3cc(C#N)cnn23)cc1Nc1ccc(-c2cnoc2)nc1` [Example 967, (R)-6-(3-cyanopyrrolo[1,2-b]pyridazin-7-yl)-N-(2-fluoro-3-hydroxy-3-methylbutyl)-4-((6-(isoxazol-4-yl)pyridin-3-yl)amino) nicotinamide]: in the assay on TNFα, the pEC50 was 6.81. At IRAK4 enzyme, this compound gave a pIC50 of 8.52.

In the case of `Cc1nc(-c2ccc(Nc3cc(-c4ccc5cc(C#N)cnn45)ncc3C(=O)NC[C@@H](F)C(C)(C)O)cc2)no1` [Example 968, (R)-6-(3-cyanopyrrolo[1,2-b]pyridazin-7-yl)-N-(2-fluoro-3-hydroxy-3-methylbutyl)-4-((4-(5-methyl-1,2,4-oxadiazol-3-yl)phenyl)amino) nicotinamide], in the assay on TNFα, the pEC50 is 7.09. For the same compound, the pIC50 on IRAK4 enzyme was 9.00.

As to `CC(C)(O)[C@H](F)CNC(=O)c1cnc(-c2ccc3cc(C#N)cnn23)cc1Nc1cnc(Cl)cn1` [Example 970, (R)-4-((5-chloropyrazin-2-yl)amino)-6-(3-cyano-pyrrolo[1,2-b]pyridazin-7-yl)-N-(2-fluoro-3-hydroxy-3-methylbutyl)nicotinamide], the pEC50 in the assay with TNFα is 7.24. At IRAK4 enzyme, the pIC50 was > 9.00.

Turning to `CC(C)(O)[C@H](F)CNC(=O)c1cnc(-c2ccc3cc(C#N)cnn23)cc1Nc1cnc(Cl)nc1` [Example 971, (R)-4-((2-chloropyrimidin-5-yl)amino)-6-(3-cyano-pyrrolo[1,2-b]pyridazin-7-yl)-N-(2-fluoro-3-hydroxy-3-methylbutyl)nicotinamide], in the assay on TNFα, the pEC50 was 7.13. At IRAK4 enzyme, the negative logarithm of the IC50 (pIC50) was > 9.00.

Regarding `CC(C)(O)[C@H](F)CNC(=O)c1cnc(-c2ccc3cc(C#N)cnn23)cc1Nc1cnc(-c2cn[nH]c2)cn1` [Example 972, (R)-4-((5-(1H-pyrazol-4-yl)pyrazin-2-yl)amino)-6-(3-cyanopyrrolo[1,2-b]pyridazin-7-yl)-N-(2-fluoro-3-hydroxy-3-methylbutyl)nicotinamide], the pEC50 in the assay on TNFα is 7.92. Also, on IRAK4 enzyme, the pIC50 is > 9.00.

With `CC(C)(O)[C@H](F)CNC(=O)c1cnc(-c2ccc3cc(C#N)cnn23)cc1Nc1ccc2nncn2c1` [Example 973, (R)-4-([1,2,4]triazolo[4,3-a]pyridin-6-ylamino)-6-(3-cyanopyrrolo[1,2-b]pyridazin-7-yl)-N-(2-fluoro-3-hydroxy-3-methylbutyl)nicotinamide], the pEC50 in the assay on TNFα is 5.72. Also, at IRAK4 enzyme, the pIC50 is 8.70.

For `CC(C)(O)[C@H](F)CNC(=O)c1cnc(-c2ccc3cc(C#N)cnn23)cc1Nc1ccc2nccn2c1` [Example 974, (R)-6-(3-cyanopyrrolo[1,2-b]pyridazin-7-yl)-N-(2-fluoro-3-hydroxy-3-methylbutyl)-4-(imidazo[1,2-a]pyridin-6-ylamino)nicotinamide], the pEC50 in the assay with TNFα is 6.95. For the same compound, the pIC50 against IRAK4 enzyme was 9.00.

In the case of `CC(C)(O)[C@H](F)CNC(=O)c1cnc(-c2ccc3cc(C#N)cnn23)cc1Nc1ccn2nccc2c1` [Example 975, (R)-6-(3-cyanopyrrolo[1,2-b]pyridazin-7-yl)-N-(2-fluoro-3-hydroxy-3-methyl-butyl)-4-(pyrazolo[1,5-a]pyridin-5-ylamino) nicotinamide], in the assay with TNFα, the pEC50 is 7.17. Further, the pIC50 on IRAK4 enzyme was > 9.00.

What is called pEC50 is the negative decadic logarithm of the EC50, by convention in mol/L. The term pIC50 denotes the negative decadic logarithm of the IC50, by convention in mol/L. Lower therefore signals a large IC50.
